Measurements from US20210094933A1, “RAPAFUCIN DERIVATIVE COMPOUNDS AND METHODS OF USE THEREOF” (The Johns Hopkins University, priority 2019, published 2021).
Numbered stars: 1 amine (or outer) side, 2 acyl side, 3 side chain; on linkers, the order of the positions; unused ones are H or OH. Square brackets hold non-standard residues; d marks the D form. Side chains are listed from the residue outwards. Peptide text beside a SMILES is read from it. * marks the point of attachment. X1 = COc1ccc(CC[C@@H](N[*:1])c2cccc(OCC(=O)[*:2])c2)cc1OC; X2 = CN(CCC=CC(=O)OCC(C)(C)C(=O)C(=O)[*:2])[*:1]; Pip = O=C(O)[C@@H]1CCCCN1; Morpholide = C1CN(*)CCO1; CO = O=C([*:1])[*:2]; Sar = CNCC(=O)O

Assays:
Assay type in all cases: cell-based
[1] = test system: H929; experiment: Cell proliferation assay (Prolif.), IC50 relative to DMSO control; details: H929 cells; class relative to DMSO control
Protocol: (§1) Cell Proliferation Assay (Prolif.) Guo et al. (2018) Nat. Chem. 11:254-63. Specific cell lines are indicated in each assay and cultured in complete growth media. Activity is scored according to the IC50 values relative to DMSO control. “Low” indicates an IC50 greater than 600 nM, “Medium” indicates an IC50 between 300 nM and 600 nM “High” indicates an IC50 less than 300 nM. “Rel.Uptake” refers to uptake activity characterization relative to a single concentration assay. “Low” indicates a response greater than 0.6 times the activity relative to DMSO, “Medium” indicates a response between 0.6 and 0.3 times the activity relative to DMSO, “High” indicates a response less than 0.3 times the activity relative to DMSO.

[2] = Cell proliferation assay, single concentration, response relative to DMSO; cell line indicated in each table; details: NCI-H929 cells
Protocol: as §1

[3] = test system: 293T; experiment: Nucleoside uptake assay (3H-Thymidine), IC50 relative to DMSO control; details: 293T cells
Protocol: (§2) Nucleoside Uptake Assay (uptake). Nuceloside uptake assays were performed with using 3H-Thymidine as described in Guo et al. (2018) Nat. Chem, 11:254-63. Specific cell lines are indicated in each assay and cultured in complete growth media. Activity is scored according to the IC50 values relative to DMSO control. “Low” indicates an IC50 greater than 600 nM, “Medium” indicates an IC50 between 300 nM and 600 nM “High” indicates an IC50 less than 300 nM. “Rel.Uptake” refers to uptake activity characterization relative to a single concentration assay. “Low” indicates a response greater than 0.6 times the activity relative to DMSO, “Medium” indicates a response between 0.6 and 0.3 times the activity relative to DMSO, “High” indicates a response less than 0.3 times the activity relative to DMSO.

[4] = Nucleoside uptake assay, single concentration (Rel.Uptake), response relative to DMSO; cell line indicated in each table
Protocol: as §2

[5] = 3H-Thymidine uptake, IC50 class relative to DMSO control
[6] = nucleoside uptake, single concentration, 293T cells
[7] = 293 T cells, single concentration
[8] = 293 T cells, nucleoside uptake at single concentration

Row | Structure (SMILES) | Uptake, 293T [3, 5] | Rel. Uptake, 293 T [4, 8] | other results
1 | COc1ccc(CC[C@H]2OC(=O)[C@@H]3CCCCN3C(=O)C(=O)C(C)(C)COC(=O)C=CCCN(C)C(=O)[C@@H](Cc3ccccc3)NC(=O)CN(C)C(=O)[C@@H](Cc3ccccc3)NC(=O)[C@H](Cc3ccc(OC(=O)N4CCOCC4)cc3)N(C)C(=O)CCC(=O)Nc3cccc2c3)cc1OC [Compound 869] |  |  | Prolif. H929 [1]: high; Rel. Prolif., NCI-H929 [2]: low
2 | COc1ccc(CC[C@H]2NC(=O)[C@@H]3CCCCN3C(=O)C(=O)C(C)(C)COC(=O)C=CCCN(C)C(=O)[C@@H](Cc3ccccc3)NC(=O)CN(C)C(=O)[C@@H](Cc3ccccc3)NC(=O)[C@H](Cc3ccc(OC(=O)N4CCOCC4)cc3)NC(=O)COc3cccc2c3)cc1OC [Compound 877] (cyclo([Pip][X1]Y([CO-Morpholide])[dF][Sar][dF][X2])) |  |  | Prolif. H929 [1]: low; Rel. Prolif., NCI-H929 [2]: low
3 | COc1ccc(CC[C@H]2OC(=O)[C@@H]3CCCCN3C(=O)C(=O)C(C)(C)COC(=O)C=CCCN(C)C(=O)[C@H](CC(C)C)N(C)C(=O)[C@H]3CCCN3C(=O)[C@H](CC(=O)OC(C)(C)C)N(C)C(=O)C(c3ccccc3)NC(=O)CCC(=O)Nc3cccc2c3)cc1OC (some centres unmarked) [Compound 1066] | high |  | Rel. Uptake, 293 T [4, 6]: high
4 | COc1ccc(CC[C@H]2OC(=O)[C@@H]3CCCCN3C(=O)C(=O)C(C)(C)COC(=O)C=CCCN(C)C(=O)[C@H](CC(C)C)N(C)C(=O)[C@H]3CCCN3C(=O)[C@H](Cc3ccc(CC(=O)OC(C)(C)C)cc3)NC(=O)C(c3ccccc3)NC(=O)CCC(=O)Nc3cccc2c3)cc1OC (some centres unmarked) [Compound 1081] | medium |  | Rel. Uptake, 293 T [4, 6]: medium
5 | COc1ccc(CC[C@H]2OC(=O)[C@@H]3CCCCN3C(=O)C(=O)C(C)(C)COC(=O)C=CCCN(C)C(=O)[C@H](CC(C)C)N(C)C(=O)[C@H]3CCCN3C(=O)[C@H](Cc3ccc(OCc4ccccc4)cc3)NC(=O)C(c3ccccc3)NC(=O)CCC(=O)Nc3cccc2c3)cc1OC (some centres unmarked) [Compound 1082] | low |  | Rel. Uptake, 293 T [4, 6]: low
6 | COc1ccc(CC[C@H]2OC(=O)[C@@H]3CCCCN3C(=O)C(=O)C(C)(C)COC(=O)C=CCCN(C)C(=O)[C@H](CC(C)C)N(C)C(=O)[C@H]3CCCN3C(=O)[C@H]3C[C@@H](NC(=O)OC(C)(C)C)CN3C(=O)C(c3ccccc3)NC(=O)CCC(=O)Nc3cccc2c3)cc1OC (some centres unmarked) [Compound 1087] | low |  | Rel. Uptake, 293 T [4, 7]: low
7 | COc1ccc(CC[C@H]2OC(=O)[C@@H]3CCCCN3C(=O)C(=O)C(C)(C)COC(=O)C=CCCN(C)C(=O)[C@H](CC(C)C)N(C)C(=O)[C@H]3CCCN3C(=O)[C@H](Cc3ccccc3)N(C)C(=O)[C@H](CC(=O)OC(C)(C)C)NC(=O)CCC(=O)Nc3cccc2c3)cc1OC [Compound 1088] | low |  | Rel. Uptake, 293 T [4, 7]: low
8 | COc1ccc(CC[C@H]2OC(=O)[C@@H]3CCCCN3C(=O)C(=O)C(C)(C)COC(=O)C=CCCN(C)C(=O)[C@@H](c3ccccc3)NC(=O)[C@H](Cc3ccc(OP(C)(C)=O)cc3)NC(=O)[C@H]3CCCN3C(=O)[C@H](CC(C)C)N(C)C(=O)COc3cccc2c3)cc1OC [Compound 1520] | low | low | 
9 | COc1ccc(CC[C@H]2OC(=O)[C@@H]3CCCCN3C(=O)C(=O)C(C)(C)COC(=O)C=CCCN(C)C(=O)[C@H](CC(C)C)N(C)C(=O)[C@H]3CCCN3C(=O)[C@H](Cc3ccc(O)cc3)NC(=O)C(c3ccccc3)NC(=O)CCC(=O)Nc3cccc2c3)cc1OC (some centres unmarked) [Compound 1522] | high | high | 
10 | COc1ccc(CC[C@H]2OC(=O)[C@@H]3CCCCN3C(=O)C(=O)C(C)(C)CNC(=O)C=CCCN(C)C(=O)[C@H](CC(C)C)N(C)C(=O)[C@H]3CCCN3C(=O)[C@H](Cc3ccccc3)N(C)C(=O)C(c3ccccc3)NC(=O)CCC(=O)Nc3cccc2c3)cc1OC (some centres unmarked) [Compound 1555] | high | high | 
11 | COc1ccc(CC[C@H]2OC(=O)[C@@H]3CCCCN3C(=O)C(=O)C(C)(C)COC(=O)C=CCCN(C)NC(c3ccccc3)C(=O)N(C)[C@@H](Cc3ccccc3)C(=O)N3CCC[C@@H]3C(=O)N(C)[C@@H](CC(C)C)C(=O)C(=O)CCOc3cccc2c3)cc1OC (some centres unmarked) [Compound 1556] | low | low | 
12 | COc1ccc(CC[C@H]2NC(=O)[C@@H]3CCCCN3C(=O)C(=O)C(C)(C)CNC(=O)C=CCCN(C)C(=O)[C@H](CC(C)C)N(C)C(=O)[C@H]3CCCN3C(=O)[C@H](Cc3ccccc3)N(C)C(=O)C(c3ccccc3)NC(=O)CCC(=O)Nc3cccc2c3)cc1OC (some centres unmarked) [Compound 1557] | high | high | 
13 | COc1ccc(CC[C@H]2OC(=O)[C@@H]3CCCCN3C(=O)C(=O)C(C)(C)COC(=O)C=CCCN(C)C(=O)[C@H](CC(C)C)N(C)C(=O)[C@H]3CCCN3C(=O)[C@H](Cc3ccc(C(=O)NCCO)cc3)NC(=O)[C@H](c3ccccc3)NC(=O)CCC(=O)Nc3cccc2c3)cc1OC [Compound 1558] |  | high | Uptake, 293T ([3]; Table 14): high
14 | COc1ccc(CC[C@H]2OC(=O)[C@@H]3CCCCN3C(=O)C(=O)C(C)(C)COC(=O)C=CCCN(C)C(=O)[C@H](CC(C)C)N(C)C(=O)[C@H]3CCCN3C(=O)[C@H](Cc3ccc(C(=O)Nc4ccccc4)cc3)NC(=O)[C@H](c3ccccc3)NC(=O)CCC(=O)Nc3cccc2c3)cc1OC [Compound 1559] |  | medium | Uptake, 293T ([3]; Table 14): me- dium
15 | COc1ccc(CC[C@H]2OC(=O)[C@@H]3CCCCN3C(=O)C(=O)C(C)(C)COC(=O)C=CCCN(C)C(=O)[C@H](CC(C)C)N(C)C(=O)[C@H]3CCCN3C(=O)[C@H](Cc3ccc(C(=O)Nc4cccnc4)cc3)NC(=O)[C@H](c3ccccc3)NC(=O)CCC(=O)Nc3cccc2c3)cc1OC [Compound 1562] |  | low | Uptake, 293T ([3]; Table 14): low
16 | COc1ccc(CC[C@H]2OC(=O)[C@@H]3CCCCN3C(=O)C(=O)C(C)(C)COC(=O)C=CCCN(C)C(=O)[C@H](CC(C)C)N(C)C(=O)[C@H]3CCCN3C(=O)[C@H](Cc3ccc(CNC(=O)c4ccccc4)cc3)NC(=O)[C@H](c3ccccc3)NC(=O)CCC(=O)Nc3cccc2c3)cc1OC [Compound 1585] |  | High (“High” indicates a response less than 0.3 times the activity relative to DMSO) | IC50 ([3]; Table 13): < 300 nM
17 | COc1ccc(CC[C@H]2OC(=O)[C@@H]3CCCCN3C(=O)C(=O)C(C)(C)COC(=O)C=CCCN(C)C(=O)[C@H](CC(C)C)N(C)C(=O)[C@H]3CCCN3C(=O)[C@H](Cc3ccc(CNC(=O)Cc4ccccc4)cc3)NC(=O)[C@H](c3ccccc3)NC(=O)CCC(=O)Nc3cccc2c3)cc1OC [Compound 1586] |  | Med | Uptake, 293T ([3]; Table 13): Med
18 | COc1ccc(CC[C@H]2OC(=O)[C@@H]3CCCCN3C(=O)C(=O)C(C)(C)COC(=O)C=CCCN(C)C(=O)[C@H](CC(C)C)N(C)C(=O)[C@H]3CCCN3C(=O)[C@H](Cc3ccc(CNC(=O)CN(C)C)cc3)NC(=O)[C@H](c3ccccc3)NC(=O)CCC(=O)Nc3cccc2c3)cc1OC [Compound 1587] |  | Low (“Low” indicates a response greater than 0.6 times the activity relative to DMSO) | IC50 ([3]; Table 13): > 600 nM
19 | COc1ccc(CC[C@H]2OC(=O)[C@@H]3CCCCN3C(=O)C(=O)C(C)(C)COC(=O)C=CCCN(C)C(=O)[C@H](CC(C)C)N(C)C(=O)[C@H]3CCCN3C(=O)[C@H](Cc3cccc(NC(C)=O)c3)NC(=O)[C@H](c3ccccc3)NC(=O)CCC(=O)Nc3cccc2c3)cc1OC [Compound 1588] |  | High (“High” indicates a response less than 0.3 times the activity relative to DMSO) | IC50 ([3]; Table 13): < 300 nM
20 | COc1ccc(CC[C@H]2OC(=O)[C@@H]3CCCCN3C(=O)C(=O)C(C)(C)COC(=O)C=CCCN(C)C(=O)[C@H](CC(C)C)N(C)C(=O)[C@H]3CCCN3C(=O)[C@H](Cc3ccc(NC(=O)Cc4cccnc4)cc3)NC(=O)[C@H](c3ccccc3)NC(=O)CCC(=O)Nc3cccc2c3)cc1OC [Compound 1589] |  | Low (“Low” indicates a response greater than 0.6 times the activity relative to DMSO) | IC50 ([3]; Table 13): > 600 nM
21 | COc1ccc(CC[C@H]2OC(=O)[C@@H]3CCCCN3C(=O)C(=O)C(C)(C)COC(=O)C=CCCN(C)C(=O)[C@H](CC(C)C)N(C)C(=O)[C@H]3CCCN3C(=O)[C@H](Cc3ccc(CC(=O)NCc4ccccc4)cc3)NC(=O)[C@H](c3ccccc3)NC(=O)CCC(=O)Nc3cccc2c3)cc1OC [Compound 1590] |  | High (“High” indicates a response less than 0.3 times the activity relative to DMSO) | IC50 ([3]; Table 14): > 600 nM
22 | CCCCCCNC(=O)Cc1ccc(C[C@@H]2NC(=O)[C@H](c3ccccc3)NC(=O)CCC(=O)Nc3cccc(c3)[C@@H](CCc3ccc(OC)c(OC)c3)OC(=O)[C@@H]3CCCCN3C(=O)C(=O)C(C)(C)COC(=O)C=CCCN(C)C(=O)[C@H](CC(C)C)N(C)C(=O)[C@H]3CCCN3C2=O)cc1 [Compound 1591] |  | Med | IC50 ([3]; Table 14): > 600 nM
